This passage reports TGI results from PubChem BioAssay (NCI).

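Results reflect a 48-hour exposure of cells in 96-well plates to compound at five concentrations. Definition used: TGI = concentration required for complete inhibition of growth.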

Assay in all cases: growth of human tumour cells (NCI), 48 h
Test [1] concerns MALME-3M melanoma.
For test [2], the system named is U251 CNS.
Test [3] has as its system HL-60(TB) leukemia.
In test [4] the test system is SK-MEL-28 melanoma.
For test [5], the system named is NCI-H522 lung.
For test [6], the system named is RXF 393 renal.
The test system of test [7] is HCC-2998 colon.
In test [8] the test system is HOP-62 NSCLC.
The test system of test [9] is DU-145 prostate.
The subject of test [10] is NCI-H460 lung.

With `COc1cc(O)c2c(=O)c(OC)c(-c3ccc(OC)c(O)c3)oc2c1`, the TGI in test [1], in [2], in [3], in [4], in test [5] and in test [6] was over 100 µM each time. The TGI in [7], in test [8], in test [9] and in test [10] was over 100 µM each time.

`COc1ccc(C(=O)NCCN(C)C)c2nc3ccccc3cc12`: the TGI in [1] was found to be 2.3 µM; in test [2] it was 7.62 µM; in [3] it was 2.15 µM; in [4], 7.11 µM; in test [5], 2.6 µM; in test [6], 6.67 µM. Also, the TGI came out at 8.34 µM in [7], 2.72 µM in [8], 3.85 µM in test [9] and 2.55 µM in test [10].

For the compound `CCOC(=O)CC/C(=N/Nc1ccc(Cl)cc1[N+](=O)[O-])C(=O)OCC`, the TGI in [1], in [2], in test [3], in test [4], in test [5] and in [6] was over 100 µM in each case. For the same compound, the TGI in test [7] was 71.5 µM; in test [8], over 100 µM; in test [9], over 100 µM; in test [10] it was over 100 µM.

Take `CO/N=C(/C(=O)OC)c1ccccc1COc1ccccc1C(F)(F)F`: the TGI in test [1] is 47.2 µM; in test [2] it was over 100 µM; in test [3], 51.3 µM; in test [4] it was over 100 µM; in test [5], 56.3 µM; in [6], over 100 µM. Moreover, the TGI in test [7], in test [8], in test [9] and in test [10] was over 100 µM each time.

For the compound `O=c1c2c(no[n+]2[O-])c2ccccc2n1-c1ccccc1`, the TGI in [1] was determined as 14.5 µM; in test [2], 16.1 µM; in test [3], 15.3 µM; in test [4], 17 µM; in [5], 3.27 µM; in test [6], 14.7 µM. In addition, the TGI in test [7] was 20.6 µM; in test [8], 22.5 µM; in test [9] it was over 74.2 µM; in [10], 21.4 µM.

On to `O=C(O)c1cccc(S(=O)(=O)NN2C(=O)CSC2c2ccc(Cl)cc2Cl)c1` (stereo not given), for which the TGI was over 100 µM in test [1]; 44.7 µM in test [2]; 34 µM in [3]; 75.8 µM in test [4]; 91.4 µM in [5]; over 100 µM in [6]. Also, the TGI in test [7], in test [8], in [9] and in [10] was over 100 µM in each case.

Consider `c1ccc(C2=NOC(c3ccccc3)N2C23CC4CC(CC(C4)C2)C3)cc1` (stereo not given), for which the TGI in [1], in test [2], in test [3], in test [4], in [5] and in [6] was over 10 µM in each case. In addition, the TGI in [7], in test [8], in [9] and in test [10] was over 10 µM throughout.

On to `C=C1C(=O)[C@@]23CC[C@@H]4[C@@]5(C)CCC[C@@]4(OC5=O)[C@@]2(C)CC[C@@H]1C3`, for which the TGI is 5.31 µM in [1]; 7.05 µM in test [2]; over 100 µM in test [3]; 10.3 µM in test [4]; 2.43 µM in test [5]; 3.25 µM in test [6]. The TGI was 5.56 µM in test [7], over 23.7 µM in test [8], 12.2 µM in [9] and 3.74 µM in test [10].

For `CCN(C(=O)N[C@@H](C)C(=O)N[C@@H](Cc1ccccc1)C(=O)OC)c1ccccc1`, the TGI was 83.8 µM in [1]; over 100 µM in [2]; over 100 µM in test [3]; 78.8 µM in test [4]; over 100 µM in [5]; over 100 µM in [6]. Besides, the TGI is over 100 µM in [7], over 100 µM in [8], over 100 µM in [9] and 38.4 µM in test [10].

Take `N#Cc1sc2c(c1OC(=O)c1ccc(C(F)(F)F)cc1)c(=O)n(-c1ccccc1)c(=S)n2-c1ccccc1`: the TGI in test [1] was 84.4 µM; in [2], 97 µM; in test [3] it was 46.1 µM; in test [4], over 100 µM; in test [5], 3.51 µM; in test [6], 61.7 µM. Also, the TGI in [7], in [8], in test [9] and in test [10] was over 100 µM throughout.

For `CC(C)Oc1cccc(N2C(=NCc3c[nH]c4ccccc34)Nc3ccncc3S2(=O)=O)c1`, the TGI is 58.8 µM in [1]; over 100 µM in test [2]; over 100 µM in test [3]; over 100 µM in test [4]; 87.2 µM in test [5]; over 100 µM in test [6]. Also, the TGI in test [7] is 97.9 µM; in [8], over 100 µM; in test [9], over 100 µM; in test [10] it was 77.6 µM.

Turning to `OCCCc1ccc2c(c1)[C@H](CO)[C@@H](c1ccc(O)cc1)O2`, the TGI in test [1] was 29.2 µM; in [2] it was over 100 µM; in test [3], over 100 µM; in [4] it was over 100 µM; in test [5] it was over 100 µM; in [6] it was over 100 µM. The TGI in test [7] is 37.3 µM; in test [8] it was over 100 µM; in test [9], over 100 µM; in test [10] it was over 100 µM.

In the case of `O=C(O)C(O)C(O)C(O)C(O)CO` (stereo not given), the TGI in test [1], in test [2], in test [3], in [4], in [5] and in test [6] was over 100 µM in each case. Also, the TGI in test [7], in test [8], in [9] and in [10] was over 100 µM in each case.

For the compound `[N-]=[N+]=CC(=O)OC(CCl)CCl`, the TGI in test [1], in test [2], in test [3], in test [4], in test [5] and in test [6] was over 100 µM each time. For the same compound, the TGI in test [7], in [8], in [9] and in test [10] was over 100 µM throughout.

Turning to `Cc1ccc(/C=C2/N=C(N/N=C\C(O)C(O)C(O)C(O)CO)NC2=O)cc1` (stereo not given), the TGI in test [1], in test [2], in test [3], in test [4], in test [5] and in test [6] was over 100 µM throughout. In addition, the TGI in test [7], in [8], in test [9] and in test [10] was over 100 µM each time.

With `CC(C)(C)OC(=O)NC(CSSCC(NC(=O)OC(C)(C)C)C(=O)O)C(=O)O` (stereo not given), the TGI in test [1], in test [2], in test [3], in [4], in [5] and in [6] was over 100 µM throughout. Also, the TGI in test [7], in test [8], in test [9] and in test [10] was over 100 µM each time.

For the compound `CC1=C(C#N)c2nc3ccccc3n2C(=O)C1(C)CCO` (stereo not given), the TGI in test [1], in test [2], in test [3], in test [4], in test [5] and in test [6] was over 100 µM each time. Moreover, the TGI in test [7], in test [8], in test [9] and in [10] was over 100 µM each time.

With `C=CCn1c(=O)ccn(/C(=C/C(=O)OCC)C(=O)OCC)c1=O`, the TGI in test [1] was found to be 25.4 µM; in test [2] it was 27.6 µM; in [3] it was 3.98 µM; in [4] it was 30.6 µM; in [5], 7.57 µM; in test [6], 28.5 µM. Also, the TGI in test [7] is 31.8 µM; in test [8], 44.4 µM; in test [9], 50.2 µM; in [10], 34 µM.

For the compound `CCOC(=O)C(NC(=O)CC)(N1CCN(c2cc3c(cc2F)c(=O)c(C(=O)O)cn3C2CC2)CC1)C(F)(F)F` (stereo not given), the TGI in test [1], in [2], in test [3], in test [4], in test [5] and in test [6] was over 100 µM in each case. The TGI in [7], in test [8], in test [9] and in [10] was over 100 µM in each case.

Consider `Cn1c2ccccc2c2c(=S)c3ccccc3ccc21`, for which the TGI in test [1], in [2], in test [3], in test [4], in test [5] and in test [6] was over 100 µM in each case. Also, the TGI in test [7], in test [8], in test [9] and in test [10] was over 100 µM throughout.
